Target: Matrix protein 2 (Influenza A virus (A/Udorn/307/1972(H3N2)), UniProt P0DOF8, S31N)

SMILES | Kd
CCC1(N)C2CC3CC(C2)CC1C3 (centres undefined) | Not Active
NC1C2CC3CC(C2)CC1C3 (centres undefined) | Not Active
CC1(N)C2CC3CC(C2)CC1C3 (centres undefined) | Not Active
NC12CC3CC(CC(C3)C1)C2 [AMANTADINE] | Not Active
